Values of other authors as cited in patent US7993907B2, “Biochips and method of screening using drug induced gene and protein expression profiling” (Mowycal Lending, LLC, priority 2001, dated 2011).
Where two headings read alike, the source gives them in different places. Where no end group is shown, it is not given here. The star is where a group is joined. For = O=C*

Key:
[1] = Indication Alzheimer's Disease
[2] = examples of hazardous chemicals
[3] = Indication Osteoporosis
[4] = Indication Breast Cancer
[5] = Indication Acute Respiratory Disease
[6] = Indication Congestive Heart Failure
[7] = test system: human peripheral blood cells; conditions: cells stimulated by pro-inflammatory agents or molecules
[8] = test system: G protein γ kinase

C[C@]12CC[C@H](O)CC1=CC[C@@H]1[C@@H]2CC[C@]2(C)C(=O)CC[C@@H]12 [DHEA]
Termination (reason drug was discontinued or terminated in FDA trials) [1]: Results were equal

CC[n+]1c(-c2ccccc2)c2cc(N)ccc2c2ccc(N)cc21 [Ethidium Bromide (EtBr), Ethidium Bromide]
Hazard [2]: Mutagen

CC/C(=C(\c1ccc(I)cc1)c1ccc(OCCN2CCCC2)cc1)c1ccccc1 [Idoxifene]
Termination (reason drug was discontinued or terminated in FDA trials) [3]: Lack of efficacy
Termination (reason drug was discontinued or terminated in FDA trials) [4]: Lack of efficacy

C[C@@H](O)CCCCn1c(=O)c2c(ncn2C)n(C)c1=O [Lisofylline]
Termination (reason drug was discontinued or terminated in FDA trials) [5]: Safety Board

ENBREL
Termination (reason drug was discontinued or terminated in FDA trials) [6]: Lack of efficacy

f-Met-Leu-Phe-Phe (For-MLFF) [HK-X]
Effect on pro-inflammatory responses of human peripheral blood cells [7]: inactivate certain pro-inflammatory responses
Mechanism of action on G protein γ kinase [8]: inhibition of G protein γ kinase
